# According to US20240246941A1, “SUBSTITUTED 4-(3-AMINOPROP-1-YL)AMINOQUINOLINE ANALOGS AS MODULATORS OF MELANOMA-ASSOCIATED ANTIGEN 11 UBIQUITIN LIGASE” (ST. JUDE CHILDREN'S RESEARCH HOSPITAL, INC., priority 2020, published 2024):
# Read-outs that look alike come from different tables or passages of the source.
# How the values were obtained:
# [1] = molecular target: interaction between GST-MAGEA11 MHD and FAM-PCF11_4 peptide (MAGE-A11:PCF11) (Homo sapiens (Human), UniProt P43364); test: TR-FRET dose response competition assay for disruption of MAGE-A11:PCF11 binding; details: read-out: IC50 by TR-FRET for disrupting MAGE-A11:PCF11 interaction
# Chain of interaction between GST-MAGEA11 MHD and FAM-PCF11_4 peptide (MAGE-A11:PCF11) (P43364 218-429): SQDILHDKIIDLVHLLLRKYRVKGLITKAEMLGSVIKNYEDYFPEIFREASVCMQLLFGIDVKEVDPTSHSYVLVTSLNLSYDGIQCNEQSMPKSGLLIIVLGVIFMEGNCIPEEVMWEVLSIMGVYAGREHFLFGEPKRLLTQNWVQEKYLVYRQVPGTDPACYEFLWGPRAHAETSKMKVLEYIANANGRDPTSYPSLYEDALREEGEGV
# Outline: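 Competition TR-FRET at room temperature in 50 mM Tris pH 7.5, 20 mM MgCl2, 0.1 mg/ml BSA, 1 mM DTT: final 5 nM GST-MAGEA11 MHD, 5 nM Tb-anti-GST, 200 nM FAM-PCF11_4, 90 min. Ratio 520/490 nm converted to % inhibition; IC50 from sigmoidal fit.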
# [2] = High throughput Caco-2 permeability; type: in vitro ADME; details: human, 10 μmol/l, 2 h, 37° C.
# Description: High throughput Caco-2 permeability was performed in the TranswellR 0.4 μm polycarbonate membrane 96-well system with modified methods. Caco-2 cells were maintained at 37° C. in a humidified incubator with an atmosphere of 5% CO2. The cells were cultured in 75 cm^2 flasks with Dulbecco's Modified Eagle's Medium (DMEM) containing 10% (v/v) FBS, 1% (v/v) non-essential amino acids (NEAA), 100 units/ml of penicillin, and 100 μg/ml of streptomycin. The Caco-2 cells were seeded onto inserts at a density of 2×10^4 cells/insert separately. The medium in the wells was exchanged each other day, and the trans epithelial electrical resistance (TEER) value was measured using an epithelial voltohm meter (Millipore, Billerica, Massachusetts). […] For transport experiments, each cultured monolayer on the 96-well plate was washed twice with a transport buffer (HBSS containing 25 mM HEPES, pH 7.4). The permeability assay was initiated by the addition of each compound solution (10 μmol/l) into inserts (apical side, A) or receivers (basolateral side, B). The Caco-2 cell monolayers were incubated for 2 h at 37° C. Fractions were collected from receivers (if apical to basal permeability) or inserts (if basal to apical permeability), and concentrations were assessed by UPLC/MS (Waters; Milford, MA). All compounds were tested in triplicates. The A→B (or B→A) apparent permeability coefficients (Papp) of each compound were calculated using the equation, Papp=dQ/dt×1/AC0, where dQ/dt equals the flux of a drug across the monolayer, A equals the total insert well surface area, and C0 is the initial concentration of substrate in the donor compartment. The efflux ratio was determined by dividing the Papp in the B-A direction by the Papp in the A-B direction.
compound,measurement,setting,value
"FC(F)(F)c1ccc2c(NCCCNCc3ccc4[nH]ccc4c3)ccnc2c1 [SJ000521054-02, N^1-((1H-Indol-5-yl)methyl)-N^3-(7-(trifluoromethyl)quinolin-4-yl)propane-1,3-diamine]",IC50,[1],400 nM
same,"Papp at 2 h, 10 μmol/l","[2]; Caco-2, pH 7.4, apical to basolateral, read-out: Caco-2 permeability, A/B",11.5 ×10⁻⁶ cm/s
same,"Papp at 2 h, 10 μmol/l","[2]; Caco-2, pH 7.4, basolateral to apical, read-out: Caco-2 permeability, B/A",14.2 ×10⁻⁶ cm/s
